Experiments:
Assay type in all cases: in vivo
[1] = system: Echinochloa crus-galli (ECHCG); test: Pre-emergence herbicidal action against ECHCG; conditions: scored visually after about 3 weeks vs untreated controls
[2] = system: Abutilon theophrasti (ABUTH); test: Pre-emergence herbicidal action against ABUTH; conditions: scored visually after about 3 weeks vs untreated controls
Outline: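 Sown pots had WP or EC formulations sprayed onto the covering soil as aqueous suspension/emulsion with 0.5% additive, then were kept in a greenhouse. After about 3 weeks, damage was scored visually as % versus untreated controls (100% = plants dead, 0% = like controls).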

Veronica persica (VERPE) = test: Pre-emergence herbicidal action against VERPE; conditions: scored visually after about 3 weeks vs untreated controls
Outline: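 Weed seeds were sown in pots and covered with soil. Pots were kept in the greenhouse and damage was scored visually after about 3 weeks as percent versus untreated controls (100% = plants died).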

[3] = system: Echinochloa crus-galli (ECHCG); test: Post-emergence herbicidal action against ECHCG; conditions: 20 g/ha, post-emergence at one-leaf stage, rated visually after about 3 weeks vs untreated controls
Outline: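 Greenhouse plants in sandy loam were sprayed at the one-leaf stage, 2-3 weeks after sowing. Activity was scored visually after about 3 weeks against untreated controls (0% = like control, 100% = dead).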

[4] = system: Abutilon theophrasti (ABUTH); test: Post-emergence herbicidal action against ABUTH; conditions: 20 g/ha, post-emergence at one-leaf stage, rated visually after about 3 weeks vs untreated controls
Method: ABUTH: Abutilon theophrasti 2. Post-Emergence Herbicidal Action and Crop Plant Compatibility Seeds of monocotyledonous and dicotyledonous weeds and crop plants are placed in sandy loam in plastic or organic planting pots, covered with soil and cultivated in a greenhouse under controlled growth conditions. 2 to 3 weeks after sowing, the test plants are treated at the one-leaf stage. The compounds of the invention, formulated in the form of wettable powders (WP) or as emulsion concentrates (EC), are then sprayed onto the green parts of the plants as aqueous suspension or emulsion with addition of 0.5% additive at a water application rate of […] (converted). After the test plants had been kept in the greenhouse under optimum growth conditions for about 3 weeks, the activity of the preparations is rated visually in comparison to untreated controls. The tables below show the herbicidal activity of numerous compounds according to the invention against important harmful plants. For example, 100% activity=the plants have died, 0% activity=like control plants.

[5] = system: Amaranthus retroflexus (AMARE); test: Post-emergence herbicidal action against AMARE; conditions: 20 g/ha, post-emergence at one-leaf stage, rated visually after about 3 weeks vs untreated controls
Outline: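 Greenhouse-grown plants in sandy loam were treated at the one-leaf stage, 2–3 weeks after sowing. Activity was rated visually after about 3 weeks against untreated controls (100% = plants dead, 0% = like control).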

Stellaria media (STEME) = test: Post-emergence herbicidal action against STEME; conditions: 20 g/ha, post-emergence at one-leaf stage, rated visually after about 3 weeks vs untreated controls

SMILES	Pre-emergence action against ECHCG ([1]; 320 g/ha)	Pre-emergence action against ABUTH ([2]; 320 g/ha)	Pre-emergence action against VERPE (Veronica persica (VERPE); 320 g/ha)	Post-emergence action against ECHCG [3]	Post-emergence action against ABUTH [4]	Post-emergence action against AMARE [5]	Post-emergence action against STEME (Stellaria media (STEME))	Pre-emergence action against ECHCG ([1]; 80 g/ha)	Pre-emergence action against VERPE (Veronica persica (VERPE); 80 g/ha)	Pre-emergence action against ABUTH ([2]; 80 g/ha)
Cn1ncc(C(=O)c2ccc(C(F)(F)F)c3c2OCS3)c1O [Example 1-13]	100%	100%	100%	90%	90%	90%	100%	–	–	–
Cn1ncc(C(=O)c2ccc(C(F)(F)F)c3c2OCCS3)c1O [Example 1-15]	–	–	–	80%	–	80%	90%	80%	90%	–
Cn1ncc(C(=O)c2ccc(C(F)(F)F)c3c2OC[S+]3[O-])c1O (stereo not shown) [Example 1-28]	100%	100%	100%	90%	90%	100%	90%	–	–	–
Cn1ncc(C(=O)c2ccc(C(F)(F)F)c3c2OCC[S+]3[O-])c1O (stereo not shown) [Example 1-30]	–	–	–	100%	80%	100%	–	100%	–	100%
CCn1ncc(C(=O)c2ccc(C(F)(F)F)c3c2OCC[S+]3[O-])c1O (stereo not shown) [Example 1-35]	–	–	–	80%	90%	100%	90%	100%	–	100%
Cc1nn(C)c(O)c1C(=O)c1ccc(C(F)(F)F)c2c1OCC[S+]2[O-] (stereo not shown) [Example 1-40]	–	–	–	90%	80%	80%	100%	80%	–	100%
Cn1ncc(C(=O)c2ccc(C(F)(F)F)c3c2OCCS3(=O)=O)c1O [Example 1-45]	–	–	–	–	–	100%	100%	100%	100%	100%
CCn1ncc(C(=O)c2ccc(C(F)(F)F)c3c2OCCS3(=O)=O)c1O [Example 1-50]	–	–	–	80%	90%	100%	80%	100%	90%	100%
Cc1nn(C)c(O)c1C(=O)c1ccc(C(F)(F)F)c2c1OCCS2(=O)=O [Example 1-55]	–	–	–	100%	90%	100%	90%	100%	90%	100%
Cn1nc(C2CC2)c(C(=O)c2ccc(C(F)(F)F)c3c2OCC[S+]3[O-])c1O (stereo not shown) [Example 1-116]	–	–	–	100%	90%	90%	100%	80%	80%	80%
Cn1ncc(C(=O)c2ccc(C(F)(F)C(F)(F)F)c3c2OCS3)c1O [Example 1-128]	–	–	–	90%	–	80%	80%	90%	–	90%
